Source: patent US20240383901A1, “SUBSTITUTED PYRROLO[2,3-D]PYRIMIDINES, THEIR PREPARATION AND THEIR THERAPEUTIC APPLICATION” (SANOFI, priority 2021, published 2024)

What was measured:
full-length LRRK2 G2019S = molecular target: T1, full-length LRRK2 G2019S (Homo sapiens, UniProt Q5S007, G2019S); assay: LRRK2-G2019S kinase activity assay (Lanthascreen TR-FRET); format: biochemical; details: 1.1 mM ATP
T1 construct: DYKDDDDK (FLAG)
Description: (§1) The potency of compounds was evaluated in vitro using the Lanthascreen® technology (ThermoFisher Scientific).
(§2) In a typical experiment, the reaction assay buffer contains 50 mM Tris pH8.2, 1 mM EGTA, 2.5 mM MgCl2, 0.05% Triton X100, 0.15% BSA and 1 mM DTT. The detection of the assay is performed using 1 nM Terbium labeled anti-phospho-LRRKtide (ThermoFisher Scientific) diluted in a TR-FRET buffer (ThermoFisher Scientific).
(§3) The experimental procedure was performed with Greiner small volume® 384-well. […] The working solution of compounds was prepared in a separate Greiner microplate.
(§4) The kinase reaction was initiated by addition of the ATP/LRRKtide substrate mix diluted in the reaction assay buffer. The reaction mix was incubated for at least 10 minutes at room temperature (initial velocity conditions). Reaction was stopped by addition of Terbium labeled anti-phospho-LRRKtide diluted into the detection buffer supplemented with EDTA (ThermoFisher Scientific). Plates are incubated for at least 30 minutes at room temperature and read on an Envision™ multimode plate reader (PerkinElmer) with LanthaScreen™. The TR-FRET 520:495 nm emission ratio was calculated and used to determine the IC50 value from a dose response curve fit to the 4-parameter logistic equation. The activity with respect to LRRK2 kinase in this test is given by the concentration which inhibits 50% of the LRRK2 activity (or IC50) in nM.

[1] = molecular target: T2, full-length LRRK2 wild type (Homo sapiens, UniProt Q5S007); assay: LRRK2 WT assay (Assay A, Lanthascreen TR-FRET, 500 uM ATP); format: biochemical; details: Assay A (values without *)
T2 construct: DYDDDDK tagged full-length LRRK2 wild type is used
Description: as §1, §2, §3, §4

T1 sequence (Q5S007 whole entry G2019S): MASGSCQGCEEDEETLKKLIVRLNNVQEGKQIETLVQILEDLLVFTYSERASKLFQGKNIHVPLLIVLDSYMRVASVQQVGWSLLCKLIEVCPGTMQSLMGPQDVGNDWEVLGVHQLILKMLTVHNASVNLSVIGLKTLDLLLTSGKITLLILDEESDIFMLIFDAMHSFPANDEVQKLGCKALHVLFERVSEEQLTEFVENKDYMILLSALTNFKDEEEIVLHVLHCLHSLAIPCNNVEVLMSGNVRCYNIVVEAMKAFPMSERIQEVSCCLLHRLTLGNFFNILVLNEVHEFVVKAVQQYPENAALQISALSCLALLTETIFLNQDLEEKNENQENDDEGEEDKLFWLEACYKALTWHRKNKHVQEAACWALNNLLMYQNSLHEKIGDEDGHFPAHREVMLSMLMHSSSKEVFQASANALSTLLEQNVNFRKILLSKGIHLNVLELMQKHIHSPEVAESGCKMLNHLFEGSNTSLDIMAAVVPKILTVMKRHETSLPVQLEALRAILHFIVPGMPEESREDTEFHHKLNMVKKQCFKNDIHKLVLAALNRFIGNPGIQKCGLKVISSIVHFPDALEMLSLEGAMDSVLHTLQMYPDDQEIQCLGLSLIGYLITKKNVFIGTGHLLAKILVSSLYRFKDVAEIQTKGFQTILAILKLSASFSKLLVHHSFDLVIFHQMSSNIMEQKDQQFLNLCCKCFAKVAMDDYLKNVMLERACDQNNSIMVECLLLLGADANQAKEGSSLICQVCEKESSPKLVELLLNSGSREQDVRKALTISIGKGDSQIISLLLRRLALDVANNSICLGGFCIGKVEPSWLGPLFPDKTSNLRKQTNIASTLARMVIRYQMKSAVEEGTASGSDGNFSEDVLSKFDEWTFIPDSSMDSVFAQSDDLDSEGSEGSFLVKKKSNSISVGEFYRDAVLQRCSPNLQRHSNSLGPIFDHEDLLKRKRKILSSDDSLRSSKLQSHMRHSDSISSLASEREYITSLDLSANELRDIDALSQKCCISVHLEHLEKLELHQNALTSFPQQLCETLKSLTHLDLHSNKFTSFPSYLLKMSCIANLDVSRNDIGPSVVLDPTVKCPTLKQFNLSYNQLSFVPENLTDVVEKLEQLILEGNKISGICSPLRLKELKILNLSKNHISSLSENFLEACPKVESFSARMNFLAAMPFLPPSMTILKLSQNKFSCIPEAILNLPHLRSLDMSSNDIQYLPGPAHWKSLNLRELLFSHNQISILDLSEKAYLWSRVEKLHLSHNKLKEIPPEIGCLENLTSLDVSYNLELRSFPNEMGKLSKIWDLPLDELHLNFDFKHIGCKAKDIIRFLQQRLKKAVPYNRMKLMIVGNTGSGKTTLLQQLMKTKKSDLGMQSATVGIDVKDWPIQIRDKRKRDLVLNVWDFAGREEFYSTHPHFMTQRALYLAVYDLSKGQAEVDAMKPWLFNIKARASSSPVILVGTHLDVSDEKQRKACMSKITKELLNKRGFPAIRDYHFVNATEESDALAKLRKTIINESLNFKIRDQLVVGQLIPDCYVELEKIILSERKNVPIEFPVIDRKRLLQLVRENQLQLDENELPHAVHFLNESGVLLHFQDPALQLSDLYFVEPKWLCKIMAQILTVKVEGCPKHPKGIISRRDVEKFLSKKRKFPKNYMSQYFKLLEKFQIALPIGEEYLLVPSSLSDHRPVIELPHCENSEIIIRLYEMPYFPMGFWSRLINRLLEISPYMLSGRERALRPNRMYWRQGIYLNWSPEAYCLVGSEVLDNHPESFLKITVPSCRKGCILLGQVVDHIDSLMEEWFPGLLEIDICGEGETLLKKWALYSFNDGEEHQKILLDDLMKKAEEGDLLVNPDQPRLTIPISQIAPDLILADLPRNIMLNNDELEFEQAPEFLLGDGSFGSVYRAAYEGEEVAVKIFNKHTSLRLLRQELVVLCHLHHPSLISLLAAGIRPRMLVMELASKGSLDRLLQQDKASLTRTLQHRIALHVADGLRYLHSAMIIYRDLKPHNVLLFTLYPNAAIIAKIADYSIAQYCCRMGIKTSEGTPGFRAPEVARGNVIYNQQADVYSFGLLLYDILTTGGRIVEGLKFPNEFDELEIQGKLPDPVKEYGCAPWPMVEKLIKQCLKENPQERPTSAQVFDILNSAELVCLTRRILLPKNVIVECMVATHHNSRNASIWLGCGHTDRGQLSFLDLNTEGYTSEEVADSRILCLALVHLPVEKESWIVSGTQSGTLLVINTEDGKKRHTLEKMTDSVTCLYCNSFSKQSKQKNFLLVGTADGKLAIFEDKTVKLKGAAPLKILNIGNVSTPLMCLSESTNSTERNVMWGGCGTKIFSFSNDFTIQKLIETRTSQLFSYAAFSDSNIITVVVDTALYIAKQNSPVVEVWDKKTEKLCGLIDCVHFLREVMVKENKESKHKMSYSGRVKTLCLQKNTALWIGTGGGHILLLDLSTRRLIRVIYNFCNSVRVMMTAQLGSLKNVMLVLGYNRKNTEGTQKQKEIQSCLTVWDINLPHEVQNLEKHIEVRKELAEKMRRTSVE
T2 sequence (Q5S007 whole entry): as the sequence (Q5S007 whole entry G2019S) above, with S2019G counted along it

SMILES	IC50 (full-length LRRK2 G2019S)	IC50 [1]
CC(C)Oc1nn(C)cc1Nc1ncc2cc(C#N)n([C@@H]3CO[C@H]3C)c2n1 (single isomer, unassigned) [Example 79, 7-[(trans)-2-methyloxetan-3-yl]-2-[(1-methyl-3-propan-2-yloxypyrazol-4-yl)amino]pyrrolo[2,3-d]pyrimidine-6-carbonitrile]	0.006 µM	0.009 µM
COC[C@H](C)n1c(C#N)cc2cnc(Nc3cn(C)nc3O[C@@H]3CO[C@H]3C)nc21 (single isomer, unassigned) [Example 88]	0.012 µM	0.02 µM
[2H]C([2H])([2H])n1cc(Nc2ncc3cc(C#N)n([C@@H](C)COC)c3n2)c(O[C@@H]2CO[C@H]2C)n1 (single isomer, unassigned) [Example 90]	0.008 µM	0.016 µM
[2H]C([2H])([2H])n1cc(Nc2ncc3cc(C#N)n([C@@H](C)COC)c3n2)c(OC2COC2(C)C)n1 (single isomer, unassigned) [Example 99]	0.036 µM	0.034 µM
[2H]C([2H])([2H])n1cc(Nc2ncc3cc(C#N)n([C@@H](C)COC)c3n2)c(OC2COC2(C)C)n1 (single isomer, unassigned) [Example 100]	0.039 µM	0.04 µM
[2H]C([2H])([2H])n1cc(Nc2ncc3cc(C#N)n([C@@H](C)COC)c3n2)c(OC2CCOC2)n1 (single isomer, unassigned) [Example 101]	0.034 µM	0.04 µM
[2H]C([2H])([2H])n1cc(Nc2ncc3cc(C#N)n([C@@H](C)COC)c3n2)c(OC2CCOC2)n1 (single isomer, unassigned) [Example 102]	0.041 µM	0.039 µM
[2H]C([2H])([2H])n1cc(Nc2ncc3cc(C#N)n([C@H]4COC[C@@H]4C)c3n2)c(OC2COC(C)(C)C2)n1 (single isomer, unassigned) [Example 109]	0.038 µM	0.026 µM
[2H]C([2H])([2H])n1cc(Nc2ncc3cc(C#N)n([C@H]4COC[C@@H]4C)c3n2)c(OC2COC(C)(C)C2)n1 (single isomer, unassigned) [Example 110]	0.008 µM	0.004 µM
[2H]C([2H])([2H])n1cc(Nc2ncc3cc(C#N)n([C@H]4COC[C@@H]4C)c3n2)c(OC2CCOC2)n1 (single isomer, unassigned) [Example 111]	0.022 µM	0.017 µM
[2H]C([2H])([2H])n1cc(Nc2ncc3cc(C#N)n([C@H]4COC[C@@H]4C)c3n2)c(OC2CCOC2)n1 (single isomer, unassigned) [Example 112]	0.016 µM	0.013 µM
[2H]C([2H])([2H])n1cc(Nc2ncc3cc(C#N)n([C@H]4COC[C@@H]4C)c3n2)c(O[C@@H]2COC[C@H]2O)n1 (single isomer, unassigned) [Example 114]	0.028 µM	0.02 µM
[2H]C([2H])([2H])n1cc(Nc2ncc3cc(C#N)n([C@H]4COC[C@@H]4C)c3n2)c(O[C@@H]2COC[C@H]2O)n1 (single isomer, unassigned) [Example 115]	0.017 µM	0.014 µM
[2H]C([2H])([2H])n1cc(Nc2ncc3cc(C#N)n([C@@H](C)COC)c3n2)c(O[C@@H]2COC[C@H]2O)n1 (single isomer, unassigned) [Example 116]	0.05 µM	0.043 µM
[2H]C([2H])([2H])n1cc(Nc2ncc3cc(C#N)n([C@@H](C)COC)c3n2)c(O[C@@H]2COC[C@H]2O)n1 (single isomer, unassigned) [Example 117]	0.05 µM	0.034 µM
[2H]C([2H])([2H])n1cc(Nc2ncc3cc(C#N)n([C@H]4COC[C@@H]4C)c3n2)c(OC2COC2(C)C)n1 (single isomer, unassigned) [Example 118]	0.029 µM	0.014 µM
CC(=O)N1CC(Oc2nn(C)cc2Nc2ncc3cc(C#N)n([C@H]4COC[C@@H]4C)c3n2)C1 [Example 1, 2-[[3-(1-acetylazetidin-3-yl)oxy-1-methyl-pyrazol-4-yl]amino]-7-[(3R,4R)-4-methyltetrahydrofuran-3-yl]pyrrolo[2,3-d]pyrimidine-6-carbonitrile]	0.005 µM	0.006 µM
C[C@H]1COC[C@@H]1n1c(C#N)cc2cnc(Nc3cn(C)nc3OC3COC3)nc21 [Example 8, 2-[[1-methyl-3-(oxetan-3-yloxy)pyrazol-4-yl]amino]-7-[(3R,4R)-4-methyltetrahydrofuran-3-yl]pyrrolo[2,3-d]pyrimidine-6-carbonitrile]	0.004 µM	0.006 µM

The remaining lines, values ahead:

IC50 (full-length LRRK2 G2019S)	IC50 [1]	SMILES
0.017 µM	0.012 µM	[2H]C([2H])([2H])n1cc(Nc2ncc3cc(C#N)n([C@H]4COC[C@@H]4C)c3n2)c(OC2COC2(C)C)n1 (single isomer, unassigned) [Example 119]
0.179 µM	0.173 µM	[2H]C([2H])([2H])n1cc(Nc2ncc3cc(C#N)n(C4CCOCC4)c3n2)c(OC2COC2(C)C)n1 (single isomer, unassigned) [Example 120, 2-((3-((2,2-dimethyloxetan-3-yl)oxy)-1-(methyl-d3)-1 H-pyrazol-4-yl)amino)-7-(tetrahydro-2H-pyran-4-yl)-7H-pyrrolo[2,3-d]pyrimidine-6-carbonitrile]
0.181 µM	0.133 µM	[2H]C([2H])([2H])n1cc(Nc2ncc3cc(C#N)n(C4CCOCC4)c3n2)c(OC2COC2(C)C)n1 (single isomer, unassigned) [Example 121, 2-((3-((2,2-dimethyloxetan-3-yl)oxy)-1-(methyl-d3)-1 H-pyrazol-4-yl)amino)-7-(tetrahydro-2H-pyran-4-yl)-7H-pyrrolo[2,3-d]pyrimidine-6-carbonitrile]
0.083 µM	0.077 µM	COCC(C)n1cc(Nc2ncc3cc(C#N)n(C4CCOCC4)c3n2)c(OC2CC2)n1 (single isomer, unassigned) [Example 126, 2-((3-cyclopropoxy-1-(1-methoxypropan-2-yl)-1 H-pyrazol-4-yl)amino)-7-(tetrahydro-2H-pyran-4-yl)-7H-pyrrolo[2,3-d]pyrimidine-6-carbonitrile]
0.183 µM	0.144 µM	COCC(C)n1cc(Nc2ncc3cc(C#N)n(C4CCOCC4)c3n2)c(OC2CC2)n1 (single isomer, unassigned) [Example 127, 2-((3-cyclopropoxy-1-(1-methoxypropan-2-yl)-1 H-pyrazol-4-yl)amino)-7-(tetrahydro-2H-pyran-4-yl)-7H-pyrrolo[2,3-d]pyrimidine-6-carbonitrile]
0.037 µM	0.041 µM	COCC(C)n1cc(Nc2ncc3cc(C#N)n([C@@H](C)COC)c3n2)c(OC2COC2)n1 (single isomer, unassigned) [Example 129]
0.057 µM	0.061 µM	COCC(C)n1cc(Nc2ncc3cc(C#N)n([C@@H](C)COC)c3n2)c(OC2COC2)n1 (single isomer, unassigned) [Example 130]
0.032 µM	0.036 µM	[2H]C([2H])([2H])n1cc(Nc2ncc3cc(C#N)n([C@@H](C)COC)c3n2)c(OC2C(C)(C)C(O)C2(C)C)n1 (single isomer, unassigned) [Example 132]
0.014 µM	0.013 µM	[2H]C([2H])([2H])n1cc(Nc2ncc3cc(C#N)n([C@@H](C)COC)c3n2)c(OC2C(C)(C)C(O)C2(C)C)n1 (single isomer, unassigned) [Example 133]
0.005 µM	0.003 µM	[2H]C([2H])([2H])n1cc(Nc2ncc3cc(C#N)n([C@@H](C)COC)c3n2)c(OC2CC(O)C2(C)C)n1 (single isomer, unassigned) [Example 134]
0.039 µM	0.043 µM	[2H]C([2H])([2H])n1cc(Nc2ncc3cc(C#N)n([C@@H](C)COC)c3n2)c(OC2CC(O)C2(C)C)n1 (single isomer, unassigned) [Example 135]
0.081 µM	0.095 µM	[2H]C([2H])([2H])n1cc(Nc2ncc3cc(C#N)n([C@@H](C)COC)c3n2)c(O[C@@H]2COC[C@@H]2O)n1 (single isomer, unassigned) [Example 136]
0.054 µM	0.044 µM	[2H]C([2H])([2H])n1cc(Nc2ncc3cc(C#N)n(C4COCC4C)c3n2)c(OC2CCC2(C)O)n1 (single isomer, unassigned) [Example 141]
0.258 µM	0.325 µM	C[C@@H]1COCC[C@H]1n1c(C#N)cc2cnc(Nc3cn(CCO)nc3OC3COC3)nc21 (single isomer, unassigned) [Example 160, 2-((1-(2-hydroxyethyl)-3-(oxetan-3-yloxy)-1 H-pyrazol-4-yl)amino)-7-(trans-3-methyltetrahydro-2H-pyran-4-yl)-7H-pyrrolo[2,3-d]pyrimidine-6-carbonitrile]
0.014 µM	0.007 µM	C[C@@H]1COCC[C@H]1n1c(C#N)cc2cnc(Nc3cn(CCO)nc3OC3COC3)nc21 (single isomer, unassigned) [Example 161, 2-((1-(2-hydroxyethyl)-3-(oxetan-3-yloxy)-1 H-pyrazol-4-yl)amino)-7-(trans-3-methyltetrahydro-2H-pyran-4-yl)-7H-pyrrolo[2,3-d]pyrimidine-6-carbonitrile]
